Data published in patent US12264156B2, “Compounds and pharmaceutical compositions thereof for the treatment of diseases” (GALAPAGOS NV, priority 2018, dated 2025).
Read-outs that look alike come from different tables or passages of the source.

Key:
SIK1 = target: T1, SIK1 (Homo sapiens, UniProt P57059); assay: ADP-Glo kinase assay, SIK1; assay type: biochemical; details: ADP-Glo SIK kinase assay
T1 construct: purchased Carna Biosciences 02-131
Summary of the method: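 Enzyme–substrate mix was started with ATP and incubated 120 min at RT. ADP formed was quantified by ADP-Glo: 40 min ATP depletion, then 30 min detection reagent converting ADP to ATP for luciferase luminescence, which rises with kinase activity. Controls: 1% DMSO and 10 μM staurosporine (final).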

SIK3 = target: T2, SIK3 (Homo sapiens, UniProt Q9Y2K2); assay: ADP-Glo kinase assay, SIK3; assay type: biochemical; details: ADP-Glo SIK kinase assay
T2 construct: purchased SignalChem S12-11G-100
Summary of the method: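 Kinase reactions (enzyme-substrate mix plus ATP) ran 120 min at room temperature for each of SIK3 and SIK2. Signal came from ADP-Glo: unconsumed ATP removed (40 min), ADP reconverted and detected by luciferase/luciferin (30 min), with luminescence tracking kinase activity. 10 μM staurosporine and 1% DMSO (final) served as controls.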

[1] = tested on: LPS-induced TNFα in monocyte-derived macrophages (MdM); assay: MdM assay: LPS-triggered TNFα (ELISA); assay type: cell-based, human; details: Homo sapiens, Macrophage, 20 h
Summary of the method: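 Human monocyte-derived macrophages from CD14+ bead-selected buffy-coat PBMCs, used on day 10, pre-treated with compound for 1 h at 37 °C (0.2% DMSO), then stimulated with 200 ng/mL LPS. Supernatant taken after 20 h for TNFα sandwich ELISA (IL-10 at 2 h).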

[2] = monocyte-derived macrophages, LPS 200 ng/mL, supernatant after 20 h, read-out: TNFα EC50

T1 sequence (P57059 whole entry): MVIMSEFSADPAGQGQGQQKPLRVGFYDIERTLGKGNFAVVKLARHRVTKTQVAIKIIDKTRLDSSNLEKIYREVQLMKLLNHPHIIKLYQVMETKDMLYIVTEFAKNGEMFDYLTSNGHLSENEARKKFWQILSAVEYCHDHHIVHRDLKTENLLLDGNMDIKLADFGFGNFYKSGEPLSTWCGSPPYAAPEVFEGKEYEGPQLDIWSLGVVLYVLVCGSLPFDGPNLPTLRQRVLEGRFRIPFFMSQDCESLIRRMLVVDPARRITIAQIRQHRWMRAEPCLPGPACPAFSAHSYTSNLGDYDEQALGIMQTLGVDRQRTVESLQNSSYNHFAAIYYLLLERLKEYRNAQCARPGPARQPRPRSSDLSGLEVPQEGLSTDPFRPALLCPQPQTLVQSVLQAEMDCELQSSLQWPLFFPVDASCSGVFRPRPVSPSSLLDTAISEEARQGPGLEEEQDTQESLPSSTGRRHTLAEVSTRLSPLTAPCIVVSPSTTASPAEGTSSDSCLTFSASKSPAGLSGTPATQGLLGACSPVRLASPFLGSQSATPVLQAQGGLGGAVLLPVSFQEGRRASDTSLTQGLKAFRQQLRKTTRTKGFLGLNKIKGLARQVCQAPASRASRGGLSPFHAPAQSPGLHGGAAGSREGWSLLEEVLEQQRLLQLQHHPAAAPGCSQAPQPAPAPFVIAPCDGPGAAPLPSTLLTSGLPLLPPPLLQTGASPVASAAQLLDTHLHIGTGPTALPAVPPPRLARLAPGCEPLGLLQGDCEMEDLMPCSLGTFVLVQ
T2 sequence (Q9Y2K2 whole entry): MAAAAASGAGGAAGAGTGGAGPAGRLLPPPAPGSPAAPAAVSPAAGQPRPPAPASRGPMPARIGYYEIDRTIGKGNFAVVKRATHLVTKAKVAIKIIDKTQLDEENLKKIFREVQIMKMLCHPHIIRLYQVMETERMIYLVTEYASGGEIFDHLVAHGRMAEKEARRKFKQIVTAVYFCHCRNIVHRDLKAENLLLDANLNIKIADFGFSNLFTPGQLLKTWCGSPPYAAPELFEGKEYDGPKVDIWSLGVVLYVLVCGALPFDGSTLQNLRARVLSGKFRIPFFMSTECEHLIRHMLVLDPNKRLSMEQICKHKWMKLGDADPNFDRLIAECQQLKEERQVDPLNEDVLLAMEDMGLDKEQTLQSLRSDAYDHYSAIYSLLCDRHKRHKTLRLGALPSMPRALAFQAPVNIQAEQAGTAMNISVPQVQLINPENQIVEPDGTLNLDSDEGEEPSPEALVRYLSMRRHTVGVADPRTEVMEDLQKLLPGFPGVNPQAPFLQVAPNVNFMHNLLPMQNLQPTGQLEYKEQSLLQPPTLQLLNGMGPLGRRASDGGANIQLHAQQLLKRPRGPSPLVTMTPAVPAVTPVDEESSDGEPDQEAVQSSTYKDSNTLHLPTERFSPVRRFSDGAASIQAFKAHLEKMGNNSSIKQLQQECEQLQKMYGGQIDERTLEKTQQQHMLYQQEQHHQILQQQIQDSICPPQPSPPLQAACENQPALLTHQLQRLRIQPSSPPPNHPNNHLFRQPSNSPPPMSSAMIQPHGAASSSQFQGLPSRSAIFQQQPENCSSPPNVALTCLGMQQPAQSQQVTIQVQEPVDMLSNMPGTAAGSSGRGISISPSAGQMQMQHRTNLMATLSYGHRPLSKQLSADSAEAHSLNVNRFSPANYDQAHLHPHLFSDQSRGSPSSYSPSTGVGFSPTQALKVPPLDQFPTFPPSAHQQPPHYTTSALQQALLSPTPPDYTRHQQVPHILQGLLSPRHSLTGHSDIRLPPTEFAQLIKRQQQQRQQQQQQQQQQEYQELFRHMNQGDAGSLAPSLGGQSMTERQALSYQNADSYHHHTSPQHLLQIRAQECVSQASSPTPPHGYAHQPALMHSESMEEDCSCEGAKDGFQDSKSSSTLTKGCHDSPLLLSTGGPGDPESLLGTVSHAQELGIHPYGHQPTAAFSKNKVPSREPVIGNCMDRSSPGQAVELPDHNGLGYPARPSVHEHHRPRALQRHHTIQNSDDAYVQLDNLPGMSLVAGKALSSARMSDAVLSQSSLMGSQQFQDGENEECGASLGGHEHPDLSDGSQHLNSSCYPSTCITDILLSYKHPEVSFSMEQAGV

Structure (SMILES) | IC50 (SIK1) | IC50 (SIK3) | EC50 [1, 2] | EC50 ([1]; read-out: TNFα EC50 (nM))
COc1cc(-c2cnc3cc(OCCN4CCOC[C@@H]4C)ccn23)cc2c1C(=O)N(CC(F)(F)F)CC2 [Cpd 257, 8-methoxy-6-[7-[2-[(3S)-3-methylmorpholin-4-yl]ethoxy]imidazo[1,2-a]pyridin-3-yl]-2-(2,2,2-trifluoroethyl)-3,4-dihydroisoquinolin-1-one] | 100 to 500 nM | 0.01 to 10 nM | 100 to 1000 nM | 
COc1cc(-c2cnc3cc(OCCCN4CCC5(CC4)CNC(=O)O5)ccn23)cc(OC(F)F)c1C(=O)NC1CC1 [Cpd 324, N-cyclopropyl-2-(difluoromethoxy)-6-methoxy-4-[7-[3-(2-oxo-1-oxa-3,8-diazaspiro[4.5]decan-8-yl)propoxy]imidazo[1,2-a]pyridin-3-yl]benzamide] | 10 to 100 nM | 0.01 to 10 nM | 100 to 1000 nM | 
COc1cc(-c2cnc3cc(OC[C@H]4COCCO4)ccn23)cc2c1C(=O)N(CC(F)(F)F)CC2 [Cpd 86, 6-[7-[[(2R)-1,4-dioxan-2-yl]methoxy]imidazo[1,2-a]pyridin-3-yl]-8-methoxy-2-(2,2,2-trifluoroethyl)-3,4-dihydroisoquinolin-1-one] | 100 to 500 nM | 0.01 to 10 nM | 100 to 1000 nM | 
CCOC(=O)C1(F)CCN(CC(O)COc2ccn3c(-c4cc(OC)c(C(=O)NC5CC5)c(OC(F)F)c4)cnc3c2)CC1 (stereo not drawn) [compound 384, ethyl 1-[3-[3-[4-(cyclopropylcarbamoyl)-3-(difluoromethoxy)-5-methoxy-phenyl]imidazo[1,2-a]pyridin-7-yl]oxy-2-hydroxy-propyl]-4-fluoro-piperidine-4-carboxylate] | 10 to 100 nM | 0.01 to 10 nM | 0.1 to 100 nM | 
COc1cc(-c2cnc3cc(OC[C@H]4CCCN4C)ccn23)cc2c1C(=O)N(CC(F)(F)F)CC2 [compound 124, 8-methoxy-6-[7-[[(2R)-1-methylpyrrolidin-2-yl]methoxy]imidazo[1,2-a]pyridin-3-yl]-2-(2,2,2-trifluoroethyl)-3,4-dihydroisoquinolin-1-one] | > 500 nM | 0.01 to 10 nM | 100 to 1000 nM | 
COc1cc(-c2cnc3cc(OCCCN4CCC5(CC4)CN(C)C(=O)O5)ccn23)cc(OC(F)F)c1C(=O)NC1CC1 [compound 325, N-cyclopropyl-2-(difluoromethoxy)-6-methoxy-4-[7-[3-(3-methyl-2-oxo-1-oxa-3,8-diazaspiro[4.5]decan-8-yl)propoxy]imidazo[1,2-a]pyridin-3-yl]benzamide] | 10 to 100 nM | 0.01 to 10 nM | 0.1 to 100 nM | 
COc1cc(-c2cnc3cc(OCCN4C[C@@H]5C[C@H]4CO5)ccn23)cc(OC(F)F)c1C(=O)NC1CC1 [compound 206, N-cyclopropyl-2-(difluoromethoxy)-6-methoxy-4-[7-[2-[(1S,4S)-2-oxa-5-azabicyclo[2.2.1]heptan-5-yl]ethoxy]imidazo[1,2-a]pyridin-3-yl]benzamide] | 10 to 100 nM | 0.01 to 10 nM | 100 to 1000 nM | 
CCOC(=O)C1(F)CCN(CCCOc2ccn3c(-c4cc(OC)c(C(=O)NC5CC5)c(OC(F)F)c4)cnc3c2)CC1 [Cpd 363, ethyl 1-[3-[3-[4-(cyclopropylcarbamoyl)-3-(difluoromethoxy)-5-methoxy-phenyl]imidazo[1,2-a]pyridin-7-yl]oxypropyl]-4-fluoro-piperidine-4-carboxylate] | 10 to 100 nM | 0.01 to 10 nM | 0.1 to 100 nM | 
COc1cc(-c2cnc3cc(OCCN4C5CCC4COC5)ccn23)cc(OC(F)F)c1C(=O)NC1CC1 [compound 193, N-cyclopropyl-2-(difluoromethoxy)-6-methoxy-4-[7-[2-(3-oxa-8-azabicyclo [3.2.1]octan-8-yl)ethoxy]imidazo[1,2-a]pyridin-3-yl]benzamide] | 10 to 100 nM | 0.01 to 10 nM |  | 100 to 1000 nM
COc1cc(-c2cnc3cc(OCCCN4CCNCC4)ccn23)cc(OC(F)F)c1C(=O)NC1CC1 [compound 278, N-cyclopropyl-2-(difluoromethoxy)-6-methoxy-4-[7-(3-piperazin-1-ylpropoxy)imidazo[1,2-a]pyridin-3-yl]benzamide] | 0.01 to 10 nM | 0.01 to 10 nM | 1000 to 5000 nM | 

Continued, in another order:

IC50 (SIK1) | IC50 (SIK3) | EC50 [1, 2] | Structure (SMILES) | EC50 ([1]; read-out: TNFα EC50 (nM))
10 to 100 nM | 0.01 to 10 nM | 1000 to 5000 nM | COc1cc(-c2cnc3cc(OCCCN4CC(O)C4)ccn23)cc(OC(F)F)c1C(=O)NC1CC1 [Cpd 286, N-cyclopropyl-2-(difluoromethoxy)-4-[7-[3-(3-hydroxyazetidin-1-yl)propoxy]imidazo[1,2-a]pyridin-3-yl]-6-methoxy-benzamide] | 
10 to 100 nM | 0.01 to 10 nM | 100 to 1000 nM | COc1cc(-c2cnc3cc(OCCN4CCOC[C@H]4C)ccn23)cc(OC(F)F)c1C(=O)NC1CC1 [compound 234, N-cyclopropyl-2-(difluoromethoxy)-6-methoxy-4-[7-[2-[(3R)-3-methylmorpholin-4-yl]ethoxy]imidazo[1,2-a]pyridin-3-yl]benzamide] | 
10 to 100 nM | 0.01 to 10 nM | 100 to 1000 nM | COc1cc(-c2cnc3cc(OCCN4CCN(C)CC4)ccn23)cc(OC(F)F)c1C(=O)NC1CC1 [compound 9, N-cyclopropyl-2-(difluoromethoxy)-6-methoxy-4-[7-[2-(4-methylpiperazin-1-yl)ethoxy]imidazo[1,2-a]pyridin-3-yl]benzamide] | 
100 to 500 nM | 0.01 to 10 nM | 100 to 1000 nM | COc1cc(-c2cnc3cc(OCCN(C)C)ccn23)cc(OC(F)F)c1C(=O)NC1CC1 [Cpd 6, N-cyclopropyl-2-(difluoromethoxy)-4-[7-[2-(dimethylamino)ethoxy]imidazo[1,2-a]pyridin-3-yl]-6-methoxy-benzamide] | 
10 to 100 nM | 0.01 to 10 nM | 100 to 1000 nM | COc1cc(-c2cnc3cc(OCCN)ccn23)cc(OC(F)F)c1C(=O)NC1CC1 [compound 118, 4-[7-(2-aminoethoxy)imidazo[1,2-a]pyridin-3-yl]-N-cyclopropyl-2-(difluoromethoxy)-6-methoxy-benzamide] | 
10 to 100 nM | 0.01 to 10 nM | 100 to 1000 nM | CNCCOc1ccn2c(-c3cc(OC)c(C(=O)NC4CC4)c(OC(F)F)c3)cnc2c1 [compound 117, N-cyclopropyl-2-(difluoromethoxy)-6-methoxy-4-[7-[2-(methylamino)ethoxy]imidazo[1,2-a]pyridin-3-yl]benzamide] | 
10 to 100 nM | 0.01 to 10 nM | 100 to 1000 nM | CN(C)CCOc1ccn2c(-c3cc(OC(F)F)c(C(=O)NC4CC4)c(OC(F)F)c3)cnc2c1 [compound 156, N-cyclopropyl-2,6-bis(difluoromethoxy)-4-[7-[2-(dimethylamino)ethoxy]imidazo[1,2-a]pyridin-3-yl]benzamide] | 
10 to 100 nM | 0.01 to 10 nM | 100 to 1000 nM | COc1cc(-c2cnc3cc(OCCN4CCOC[C@@H]4C)ccn23)cc(OC(F)F)c1C(=O)NC1CC1 [compound 233, N-cyclopropyl-2-(difluoromethoxy)-6-methoxy-4-[7-[2-[(3S)-3-methylmorpholin-4-yl]ethoxy]imidazo[1,2-a]pyridin-3-yl]benzamide] | 
100 to 500 nM | 0.01 to 10 nM | > 5000 nM | COc1cc(-c2cnc3cc(OCc4nncn4C)ccn23)cc(OC(F)F)c1C(=O)NC1CC1 [compound 227, N-cyclopropyl-2-(difluoromethoxy)-6-methoxy-4-[7-[(4-methyl-1,2,4-triazol-3-yl)methoxy]imidazo[1,2-a]pyridin-3-yl]benzamide] | 
